Results: PMC3286537 (Purinergic Signalling, 2011)
Substitutions are numbered along the chain they refer to. Where two headings read alike, the source gives them in different places. Values belong to the molecule of their own block, whether it stands above or below them.

How the values were obtained:
[1] = target: T1, human adenosine A2BR mutant Y202S^5.58 (Homo sapiens, UniProt P29275, Y202S); assay: Liquid yeast growth assay, mutant Y202S
T1 sequence (P29275 1-332 Y202S): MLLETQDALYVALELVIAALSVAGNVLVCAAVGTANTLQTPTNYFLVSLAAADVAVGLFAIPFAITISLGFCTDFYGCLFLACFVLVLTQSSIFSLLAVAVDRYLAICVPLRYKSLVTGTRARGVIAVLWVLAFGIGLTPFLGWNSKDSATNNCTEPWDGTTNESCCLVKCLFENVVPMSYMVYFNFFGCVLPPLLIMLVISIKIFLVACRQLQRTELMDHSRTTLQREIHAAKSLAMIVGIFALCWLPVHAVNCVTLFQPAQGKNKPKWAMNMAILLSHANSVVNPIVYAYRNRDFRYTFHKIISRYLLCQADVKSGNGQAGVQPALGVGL

[2] = target: T2, human adenosine A2BR mutant C167S^EL2 (Homo sapiens, UniProt P29275, C167S); assay: Liquid yeast growth assay, mutant C167S
T2 sequence (P29275 1-332 C167S): T1 sequence (P29275 1-332 Y202S) with C167S, S202Y

[3] = test system: A2BR mutant C167^EL2 to serine; settings: C167^EL2 mutated to serine; cited from earlier work
[4] = test system: other 11 mutant adenosine A2BRs; assay: Solid yeast growth assay, the other 11 mutant receptors; format: cell-based, human; settings: 10 μM ZM241385
[5] = target: T1, human adenosine A2BR mutant Y202S^5.58; assay: Solid yeast growth assay, mutant Y202S; format: cell-based; settings: inverse agonist response
hA2BR [6] = target: T3, hA2BR (Homo sapiens, UniProt P29275); assay: Saturation binding on whole yeast cells expressing the hA2BR; settings: read-out: K D, yeast
T3 sequence (P29275 1-332): T1 sequence (P29275 1-332 Y202S) with S202Y

hA2BR [7] = target: T3, hA2BR; settings: CHO cell membranes expressing the hA2BR; cited from earlier work

SMILES: N#Cc1c(N)nc(SCC(N)=O)c(C#N)c1-c1ccc(OCC2CC2)cc1 [BAY 60-6583, 2-[6-amino-3,5-dicyano-4-[4-(cyclopropylmethoxy)phenyl]pyridin-2-ylsulfanyl]acetamide]
fold increase in potency compared with wild type [1]: 10 fold
fold increase in potency compared with wild type [2]: 2 fold
fold increase in potency [3]: 2.5 fold

effect on constitutive activity [4]: could be fully suppressed
effect on constitutive activity [5]: could be reduced to wild-type levels
SMILES: Nc1nc(NCCc2ccc(O)cc2)nc2nc(-c3ccco3)nn12 [ZM241385, 4-{2-[7-amino-2-(2-furyl)[1,2,4]triazolo-[2,3-a][1,3,5]triazin-5-yl-amino]ethyl}phenol]

Kd (hA2BR [6]): 0.81 ± 0.02 nM
SMILES: CCCn1c(=O)[nH]c2nc(-c3ccc(S(=O)(=O)N4CCN(c5ccc(Cl)cc5)CC4)cc3)[nH]c2c1=O [[^3H]PSB-603]
Kd (hA2BR [7]): 0.4 ± 0.19 nM
